Laboratory results published in patent US10919911B2, “Tricyclic ASK1 inhibitors” (Terns, Inc., priority 2018, dated 2021).

Each compound was assayed against ASK1 kinase (Homo sapiens (Human), UniProt Q99683) (assay: RBC Kinase Assay (33P-ATP radiometric, myelin basic protein substrate)). Conditions: 20 ng ASK1 kinase, MBP substrate, 120 min at room temperature, 1% DMSO.
Type: biochemical
Description: Example B1. RBC Kinase Assay Protocol
Base Reaction buffer: 20 mM Hepes (pH 7.5), 10 mM MgCl2, 1 mM EGTA, 0.02% Brij35, 0.02 mg/ml BSA, 0.1 mM Na3VO4, 2 mM DTT, and 1% DMSO were used for the assay.
Myelin base protein (MPB) was prepared in freshly prepared Base Reaction Buffer. 20 ng of ASK1 kinase was delivered into the substrate solution and gently mixed. Compounds in DMSO were delivered into the kinase reaction mixture (final DMSO concentration 1%). Commercially available 33P-ATP was delivered into the reaction mixture to initiate the reaction. The kinase reaction was incubated for 120 min. at room temperature. Reactions were spotted onto P81 ion exchange paper (Whatman #3698-915). Filters were washed extensively in 0.75% Phosphoric acid. Radioactivity on filters was read, and IC50 values were determined.

Sequence of ASK1 kinase (Q99683 whole entry): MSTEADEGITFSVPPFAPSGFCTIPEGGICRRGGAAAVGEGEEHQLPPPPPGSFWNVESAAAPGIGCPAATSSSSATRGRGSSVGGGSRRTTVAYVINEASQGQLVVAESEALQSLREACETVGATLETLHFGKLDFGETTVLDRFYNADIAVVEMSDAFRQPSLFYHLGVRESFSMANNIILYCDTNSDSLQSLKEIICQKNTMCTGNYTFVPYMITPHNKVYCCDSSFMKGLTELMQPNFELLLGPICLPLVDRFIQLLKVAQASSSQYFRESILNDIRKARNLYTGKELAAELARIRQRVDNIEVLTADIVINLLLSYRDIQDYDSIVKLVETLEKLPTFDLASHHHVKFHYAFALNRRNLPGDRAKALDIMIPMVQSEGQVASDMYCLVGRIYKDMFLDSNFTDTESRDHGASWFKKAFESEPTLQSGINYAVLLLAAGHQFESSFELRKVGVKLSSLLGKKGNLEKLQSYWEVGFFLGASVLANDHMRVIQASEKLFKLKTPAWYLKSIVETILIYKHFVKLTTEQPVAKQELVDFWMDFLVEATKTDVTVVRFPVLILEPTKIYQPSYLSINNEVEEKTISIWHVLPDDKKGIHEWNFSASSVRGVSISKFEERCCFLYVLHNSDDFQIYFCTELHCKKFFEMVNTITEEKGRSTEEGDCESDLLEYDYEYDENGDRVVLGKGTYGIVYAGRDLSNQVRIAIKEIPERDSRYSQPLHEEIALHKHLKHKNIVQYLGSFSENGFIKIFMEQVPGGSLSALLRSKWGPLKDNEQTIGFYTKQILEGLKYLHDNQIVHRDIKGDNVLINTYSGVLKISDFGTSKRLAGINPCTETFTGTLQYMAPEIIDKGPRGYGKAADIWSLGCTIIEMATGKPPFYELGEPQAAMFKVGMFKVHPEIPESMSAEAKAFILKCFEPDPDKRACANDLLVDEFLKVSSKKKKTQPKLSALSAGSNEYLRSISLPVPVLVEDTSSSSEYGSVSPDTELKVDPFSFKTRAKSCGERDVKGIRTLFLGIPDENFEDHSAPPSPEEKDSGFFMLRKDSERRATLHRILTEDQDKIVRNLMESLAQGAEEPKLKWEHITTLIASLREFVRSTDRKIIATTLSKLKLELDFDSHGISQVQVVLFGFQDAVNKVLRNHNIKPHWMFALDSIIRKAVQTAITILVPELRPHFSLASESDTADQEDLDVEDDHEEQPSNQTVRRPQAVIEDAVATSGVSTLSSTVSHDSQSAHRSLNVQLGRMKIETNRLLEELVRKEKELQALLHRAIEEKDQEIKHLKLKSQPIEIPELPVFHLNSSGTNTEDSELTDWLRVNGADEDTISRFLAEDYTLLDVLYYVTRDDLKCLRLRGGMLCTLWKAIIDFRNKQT

Going from `C[C@H]1COc2c(NC(=O)c3cc(-n4cnc(C5CC5)c4)c(N4CCOCC4)cn3)cccc2-c2nnnn21` [Example 22, (S)-4-(4-cyclopropyl-1H-imidazol-1-yl)-N-(5-methyl-5,6-dihydrobenzo[f]tetrazolo[1,5-d][1,4]oxazepin-8-yl)-5-morpholinopicolinamide] to `O=C(Nc1cccc2c1OCC1(CC1)n1cnnc1-2)c1cc(-n2cnc(C3CC3)c2)c(N2CCOCC2)cn1` [Example 25, 4-(4-cyclopropyl-1H-imidazol-1-yl)-5-morpholino-N-(6H-spiro[benzo[f][1,2,4]triazolo[4,3-d][1,4]oxazepine-5,1′-cyclopropan]-8-yl)picolinamide], the IC50 rises from 0.6 nM to 3.3 nM (5.5-fold).

First: Cc1cc(F)c(C(=O)Nc2cccc3c2OC[C@H](CO)n2nnnc2-3)cc1-n1cnc(C2CC2)c1 [Example 23, (S)-5-(4-cyclopropyl-1H-imidazol-1-yl)-2-fluoro-N-(5-(hydroxymethyl)-5,6-dihydrobenzo[f]tetrazolo[1,5-d][1,4]oxazepin-8-yl)-4-methylbenzamide]
Second: Cc1cc(F)c(C(=O)Nc2cccc3c2OC[C@H](CF)n2nnnc2-3)cc1-n1cnc(C2CC2)c1 [Example 26, (R)-5-(4-cyclopropyl-1H-imidazol-1-yl)-2-fluoro-N-(5-(fluoromethyl)-5,6-dihydrobenzo[f]tetrazolo[1,5-d][1,4]oxazepin-8-yl)-4-methylbenzamide]
The IC50 of the first is 8.9-fold lower: 0.9 nM for the first, 8 nM for the second. The first is the more potent here.

`O=C(Nc1cccc2c1OC[C@H](CO)n1nnnc1-2)c1cc(-n2cnc(C3CC3)c2)ccn1` [Example 24, (S)-4-(4-cyclopropyl-1H-imidazol-1-yl)-N-(5-(hydroxymethyl)-5,6-dihydrobenzo[f]tetrazolo[1,5-d][1,4]oxazepin-8-yl)picolinamide] and `O=C(Nc1cccc2c1OC[C@H](CF)n1nnnc1-2)c1cc(-n2cnc(C3CC3)c2)ccn1` [Example 27, (R)-4-(4-cyclopropyl-1H-imidazol-1-yl)-N-(5-(fluoromethyl)-5,6-dihydrobenzo[f]tetrazolo[1,5-d][1,4]oxazepin-8-yl)picolinamide] are within 1.5-fold of each other in IC50: 6.2 nM for the first, 6.8 nM for the second.

`Cc1cc(F)c(C(=O)Nc2cccc3c2OC[C@@H](CF)n2cnnc2-3)cc1-n1cnc(C2CC2)c1` [Example 28, (S)-5-(4-cyclopropyl-1H-imidazol-1-yl)-2-fluoro-N-(5-(fluoromethyl)-5,6-dihydrobenzo[f][1,2,4]triazolo[4,3-d][1,4]oxazepin-8-yl)-4-methylbenzamide] and `Cc1cc(F)c(C(=O)Nc2cccc3c2OC[C@H](CF)n2cnnc2-3)cc1-n1cnc(C2CC2)c1` [Example 32, (R)-5-(4-cyclopropyl-1H-imidazol-1-yl)-2-fluoro-N-(5-(fluoromethyl)-5,6-dihydrobenzo[f][1,2,4]triazolo[4,3-d][1,4]oxazepin-8-yl)-4-methylbenzamide] are within 1.5-fold of each other in IC50: 4.5 nM for the first, 3.1 nM for the second.

`O=C(Nc1cccc2c1OC[C@@H](CF)n1cnnc1-2)c1cc(-n2cnc(C3CC3)c2)ccn1` [Example 29, (S)-4-(4-cyclopropyl-1H-imidazol-1-yl)-N-(5-(fluoromethyl)-5,6-dihydrobenzo[f][1,2,4]triazolo[4,3-d][1,4]oxazepin-8-yl)picolinamide] and `O=C(Nc1cccc2c1OC[C@@H](CF)n1nnnc1-2)c1cc(-n2cnc(C3CC3)c2)ccn1` [Example 31, (S)-4-(4-cyclopropyl-1H-imidazol-1-yl)-N-(5-(fluoromethyl)-5,6-dihydrobenzo[f]tetrazolo[1,5-d][1,4]oxazepin-8-yl)picolinamide] are within 1.5-fold of each other in IC50: 4.1 nM for the first, 5.7 nM for the second.

Work on `Cc1cc(F)c(C(=O)Nc2cccc3c2OC[C@@H](CF)n2nnnc2-3)cc1-n1cnc(C2CC2)c1` [Example 30, (S)-5-(4-cyclopropyl-1H-imidazol-1-yl)-2-fluoro-N-(5-(fluoromethyl)-5,6-dihydrobenzo[f]tetrazolo[1,5-d][1,4]oxazepin-8-yl)-4-methylbenzamide] yielded an IC50 of 4.5 nM.
